Test results taken from ChEMBL document CHEMBL2434849, “The development of bis(hydroxymethyl)pyrrole analogs as bifunctional DNA cross-linking agents and their chemotherapeutic potential” (Eur J Med Chem, 2013).

Key:
PC-3 = experiment: Cytotoxicity against human PC3 cells; type: functional, cell-based
[1] = Cytotoxicity against human H460 cells; type: functional, cell-based; settings: NCI-H460
MCF7 = experiment: Cytotoxicity against human MCF7 cells; type: functional, cell-based
HL-60 = experiment: Cytotoxicity against human HL60 cells; type: functional, cell-based
P388 [2] = experiment: Antitumor activity against mouse P388 cells graft model at 7.5 mg/kg, ip qd for 5 days; type: functional; settings: route intraperitoneal
B16 = experiment: Antitumor activity against mouse B16 cells graft model at 12.5 mg/kg, ip qd for 9 days; type: functional; settings: route intraperitoneal
P388 [3] = experiment: Antitumor activity against mouse P388 cells assessed as increase in life span of host; type: functional

Row | SMILES | IC50 [1] | IC50 (MCF7) | IC50 (HL-60) | other results
1 | CCNC(=O)OCc1c(COC(=O)NCC)c(-c2ccc(OC)cc2)n2c1Cc1ccccc1-2 | 13.2 µM | 25.9 µM |  | IC50 (PC-3): 30.2 µM
2 | COc1ccc(-c2c(COC(=O)NC(C)C)c(COC(=O)NC(C)C)c3n2-c2ccccc2C3)cc1 | 20.3 µM | 34.2 µM |  | IC50 (PC-3): 23.2 µM
3 | CC(C)NC(=O)OCc1c(COC(=O)NC(C)C)c(-c2ccc(Cl)c(Cl)c2)n2c1CCC2 |  |  | 1.5 µM | 
4 | COc1ccc2c(c1)CCn1c(C)c(COC(=O)NC(C)C)c(COC(=O)NC(C)C)c1-2 |  |  |  | T/C (P388 [2]): 232%; T/C (B16): 180%
5 | CC(C)NC(=O)OCc1c(COC(=O)NC(C)C)c(-c2ccc(F)cc2)n2c1SCC2 |  |  | 1.6 µM | 
6 | Cc1c(COC(=O)NC(C)C)c(COC(=O)NC(C)C)c2n1CS(=O)(=O)C2 |  |  |  | Activity (P388 [3]): 118%
7 | CC(C)NC(=O)OCc1c(COC(=O)NC(C)C)c(-c2ccc(Cl)cc2)n2c1SCC2 |  |  | 0.85 µM | 
8 | CC(C)NC(=O)OCc1c(COC(=O)NC(C)C)c(-c2ccccc2)n2c1SCC2 |  |  | 1.5 µM | 
9 | CNC(=O)OCc1c(COC(=O)NC)c(-c2ccc(OC)cc2)n2c1Cc1ccccc1-2 | 82.1 µM | 20 µM |  | 
